Laboratory results taken from ChEMBL document CHEMBL3881525, “Analogs of dehydrophenylahistins and their therapeutic use” (2007).
Active and inactive are the calls of the source. The calls are words filed in the database; no cut-off is given here.

Assays:
HUVEC [1] = experiment: Induction of apoptosis in HUVEC assessed as cell membrane blebbing; type: functional, cell-based; settings: Homo sapiens
Tubulin (Homo sapiens) [2] = target: T1, Tubulin (Homo sapiens) (UniProt P68371+Q9H4B7+P0DPH7+P68366+Q13509+Q71U36+P04350+Q3ZCM7+P07437+P68363+Q9BQE3+Q6PEY2+Q13885+Q9BVA1+Q9BUF5); experiment: Induction of microtubule depolymerization in human CCD-27Sk cells at 2 uM measured after 30 mins; type: cell-based
[3] = Antitumor activity against human A549 cells xenografted in nude mouse assessed as tumor growth inhibition at 7.5 mg/kg, ip qd administered every third day for 5 days in presence of CPT-11 relative to control; type: functional; settings: 120 h, read-out: TGI
HUVEC [4] = experiment: Induction of apoptosis in HUVEC assessed as disruption of nuclei; type: functional, cell-based; settings: Homo sapiens
Rattus norvegicus [5] = experiment: Effect on blood flow in rat heart at 15 mg/kg, ip measured after 1 hr by [125I]iodoantipyrine based method relative to vehicle control; type: ADME, organism-based; settings: in vivo
Tubulin (Homo sapiens) [6] = target: T1, Tubulin (Homo sapiens); experiment: Induction of microtubule instability in human MCF7 cells assessed as time spent for attenuation at IC25 for mitotic block measured after 20 hrs by immunofluorescence analysis; type: cell-based
[7] = target: Mitogen-activated protein kinase 10 (Rattus norvegicus) (UniProt P49187); settings: 10 uM
Chain of Mitogen-activated protein kinase 10 (Rattus norvegicus) (P49187 whole entry): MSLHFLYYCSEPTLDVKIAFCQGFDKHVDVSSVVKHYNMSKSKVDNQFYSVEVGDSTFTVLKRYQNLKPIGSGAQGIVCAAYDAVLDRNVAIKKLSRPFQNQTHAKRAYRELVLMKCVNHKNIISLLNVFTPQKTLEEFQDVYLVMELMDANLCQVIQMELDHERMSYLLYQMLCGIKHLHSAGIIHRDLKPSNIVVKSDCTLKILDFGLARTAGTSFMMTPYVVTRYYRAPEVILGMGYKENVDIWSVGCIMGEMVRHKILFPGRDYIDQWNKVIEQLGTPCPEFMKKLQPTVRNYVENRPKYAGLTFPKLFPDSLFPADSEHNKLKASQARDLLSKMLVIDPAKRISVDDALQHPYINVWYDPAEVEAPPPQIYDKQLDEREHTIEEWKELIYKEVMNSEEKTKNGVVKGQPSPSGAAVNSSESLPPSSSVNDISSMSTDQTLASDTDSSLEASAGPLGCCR
Description: Inhibition of rat JNK3 at 10 uM in presence of ATP

Rattus norvegicus [8] = experiment: Effect on blood flow in rat skin at 15 mg/kg, ip measured after 1 hr by [125I]iodoantipyrine based method relative to vehicle control; type: ADME, organism-based; settings: in vivo
Rattus norvegicus [9] = experiment: Effect on blood flow in rat gut at 15 mg/kg, ip measured after 1 hr by [125I]iodoantipyrine based method relative to vehicle control; type: ADME, organism-based; settings: in vivo
Tubulin (Homo sapiens) [10] = target: T1, Tubulin (Homo sapiens); experiment: Induction of microtubule instability in human MCF7 cells assessed as time spent for shortening at IC50 for mitotic block measured after 20 hrs by immunofluorescence analysis; type: cell-based
HeLa [11] = experiment: Effect on cell cycle progression in human HeLa cells assessed as increase in 4N cells at 100 nM; type: functional, cell-based
[12] = Antitumor activity against human MCF7 cells xenografted in nude mouse assessed as tumor growth inhibition at 7.5 mg/kg, ip qd administered every third day for 5 days in presence of CPT-11 relative to control; type: functional; settings: 120 h, read-out: TGI
[13] = tested on: Trichophyton mentagrophytes; experiment: Fungicidal activity against Trichophyton mentagrophytes isolate 1 measured after 48 hrs by broth dilution method; type: functional; settings: isolate 1, 48 h
[14] = target: Tubulin alpha (Homo sapiens) (UniProt P0DPH7+P68366+Q71U36+P68363+Q9BQE3+Q6PEY2+A6NHL2+Q9NY65); experiment: Induction of alpha-tubulin depolymerization in HUVEC at 200 nM measured after 30 mins by DAPI staining based indirect immunofluorescence analysis; type: cell-based
Rattus norvegicus [15] = experiment: Reduction in blood flow in rat kidney at 15 mg/kg, ip measured after 24 hrs by [125I]iodoantipyrine based method relative to vehicle control; type: ADME, organism-based; settings: in vivo
[16] = Cytotoxicity against human HT-29 cells assessed as reduction in cell viability measured after 48 hrs by resazurin dye-based fluorometric analysis relative to control; type: functional
Tubulin (Homo sapiens) [17] = target: T1, Tubulin (Homo sapiens); experiment: Time required for induction of microtubule dynamic instability in human MCF7 cells at IC25 for mitotic block measured after 20 hrs by immunofluorescence analysis; type: cell-based
Jurkat [18] = experiment: Induction of apoptosis in human Jurkat cells assessed as DNA laddering at 1 nM by gel electrophoresis; type: functional, cell-based
MCF7 [19] = experiment: Potentiation of taxotere-induced antitumor activity against human MCF7 cells xenografted in nude mouse assessed as tumor growth inhibition at 7.5 mg/kg, ip qd for 4 days measured on day 7; type: functional, organism-based
[20] = Toxicity in mouse allografted with mouse N202 tumor spheroids expressing H2B-GFP assessed as effect on tumor surrounding vasculature in the dorsal skin fold at 5 mg/kg, iv administered on day 12 as infusion for 2 mins measured on day 15; type: organism-based; settings: in vivo
HUVEC [21] = experiment: Induction of apoptosis in HUVEC assessed as cell shrinkage; type: functional, cell-based; settings: Homo sapiens
[22] = Antiproliferative activity against taxol-resistant human MES-SA/Dx5 cells expressing MDR1 mRNA and P-gp; type: functional, cell-based
[23] = Toxicity in mouse allografted with mouse N202 tumor spheroids expressing H2B-GFP at 10 mg/kg, iv administered on day 12 as infusion for 5 mins; type: organism-based; settings: in vivo
[24] = Antifungal activity against Epidermophyton floccosum isolate 1 measured after 48 hrs by broth dilution method; type: functional
Jurkat [25] = experiment: Induction of apoptosis in human Jurkat cells assessed as caspase3 activation; type: functional, cell-based
HUVEC [26] = experiment: Induction of monolayer permeability in HUVEC assessed as colchicin transport at 2 uM measured up to 1 hr; type: functional, cell-based; settings: Homo sapiens
[27] = target: Cyclin-dependent kinase 1/cyclin B1 (Homo sapiens) (UniProt P06493+P14635); settings: 10 uM
Chain of Cyclin-dependent kinase 1/cyclin B1 (Homo sapiens) (P06493 whole entry, looked up): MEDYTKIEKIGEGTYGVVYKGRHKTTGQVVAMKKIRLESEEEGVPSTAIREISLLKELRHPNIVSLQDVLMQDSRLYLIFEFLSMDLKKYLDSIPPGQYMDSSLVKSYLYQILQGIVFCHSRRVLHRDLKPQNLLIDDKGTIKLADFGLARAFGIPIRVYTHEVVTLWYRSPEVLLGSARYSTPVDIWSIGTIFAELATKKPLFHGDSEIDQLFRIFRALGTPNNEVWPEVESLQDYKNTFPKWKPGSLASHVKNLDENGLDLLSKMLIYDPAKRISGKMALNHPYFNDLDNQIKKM
Chain of Cyclin-dependent kinase 1/cyclin B1 (Homo sapiens) (P14635 whole entry, looked up): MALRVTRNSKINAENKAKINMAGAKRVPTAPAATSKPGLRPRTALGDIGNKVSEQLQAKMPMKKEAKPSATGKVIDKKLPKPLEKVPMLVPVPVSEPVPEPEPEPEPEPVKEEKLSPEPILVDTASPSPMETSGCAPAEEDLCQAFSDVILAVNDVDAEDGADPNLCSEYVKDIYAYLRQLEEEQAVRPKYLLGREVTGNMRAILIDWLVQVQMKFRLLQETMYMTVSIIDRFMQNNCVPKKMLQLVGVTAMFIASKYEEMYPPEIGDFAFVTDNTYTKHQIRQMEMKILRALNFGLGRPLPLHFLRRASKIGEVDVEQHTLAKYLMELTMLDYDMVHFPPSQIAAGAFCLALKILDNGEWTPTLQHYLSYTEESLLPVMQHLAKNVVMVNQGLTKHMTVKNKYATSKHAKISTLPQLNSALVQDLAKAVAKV
Description: Inhibition of human CDK1/human cyclinB at 10 uM in presence of ATP

Tubulin (Homo sapiens) [28] = target: T1, Tubulin (Homo sapiens); experiment: Induction of microtubule dynamic instability in human MCF7 cells assessed as effect on spindle morphology at mitotic block IC25 measured after 20 hrs by immunofluorescence analysis; type: cell-based
Rattus norvegicus [29] = experiment: Reduction in blood flow in rat skin at 15 mg/kg, ip measured after 24 hrs by [125I]iodoantipyrine based method relative to vehicle control; type: ADME, organism-based; settings: in vivo
[30] = Antifungal activity against Epidermophyton floccosum isolate 2 measured after 48 hrs by broth dilution method; type: functional
Tubulin (Homo sapiens) [31] = target: T1, Tubulin (Homo sapiens); experiment: Induction of microtubule instability in human MCF7 cells assessed as rescue frequency at IC25 for mitotic block measured after 20 hrs by immunofluorescence analysis; type: cell-based
[32] = Toxicity in mouse allografted with mouse N202 tumor spheroids expressing H2B-GFP at 5 mg/kg, iv administered on day 12 as infusion for 2 mins; type: organism-based; settings: in vivo
[33] = Antiproliferative activity against taxol-sensitive human MES-SA cells […]; type: functional, cell-based
[34] = Antimitotic activity in human MCF7 cells assessed as tubulin foci formation at mitotic block IC50 measured after 20 hrs by immunofluorescence analysis relative to control; type: functional
MCF7 [35] = experiment: Antimitotic activity in human MCF7 cells assessed as microtubule polymer at twice mitotic block IC50 measured after 20 hrs by immunofluorescence analysis relative to control; type: functional, cell-based
Tubulin (Homo sapiens) [36] = target: T1, Tubulin (Homo sapiens); experiment: Induction of microtubule instability in human MCF7 cells assessed as time spent for shortening at IC25 for mitotic block measured after 20 hrs by immunofluorescence analysis; type: cell-based
MCF7 [37] = experiment: Antimitotic activity in human MCF7 cells assessed as mitotic index measured after 20 hrs by DAPI-staining based fluorescence microscopic analysis; type: functional, cell-based
HeLa [38] = experiment: Effect on cell cycle progression in human HeLa cells assessed as reduction in 2N cells at 100 nM; type: functional, cell-based
P22 = experiment: Induction of necrosis in rat P22 cells implanted in rat compound administered intraperitoneally measured after 24 hrs post dose; type: functional, cell-based
Mus musculus = experiment: Antivascular activity against mouse N202 tumor spheroids expressing H2B-GFP allografted in mouse assessed as inhibition of tumor-induced central vasculature at 10 mg/kg, iv administered on day 12 as infusion for 5 mins measured on day 15 by fluorescence video microscopy; type: functional, organism-based
[39] = Cytotoxicity against mouse B16F10 cells assessed as reduction in cell viability measured after 48 hrs by resazurin dye-based fluorometric analysis; type: functional; settings: B16-F10, 48 h

CC(C)(C)c1[nH]cnc1/C=c1\[nH]c(=O)/c(=C/c2ccccc2)[nH]c1=O [PLINABULIN]
Activity (HUVEC [1]): Active | Activity (Tubulin (Homo sapiens) [2]): Active | inhibition in vivo at 7.5 mg/kg [3]: 74% | Activity (HUVEC [4]): Active | Activity (Rattus norvegicus [5]): Non-Toxic | Activity (Tubulin (Homo sapiens) [6]): 49.8% | TIME (Tubulin (Homo sapiens) [6]): 0.0122 h | inhibition [7]: > 50% | Activity (Rattus norvegicus [8]): Non-Toxic | Activity (Rattus norvegicus [9]): Non-Toxic | Activity (Tubulin (Homo sapiens) [10]): 20.9% | TIME (Tubulin (Homo sapiens) [10]): 0.00367 h | Activity (HeLa [11]): Active | inhibition in vivo at 7.5 mg/kg [12]: 26 to 81% | MFC [13]: > 16 µg/mL | Activity [14]: Active | Activity (Rattus norvegicus [15]): Toxic | inhibition (INH) [16]: 82.5 - 88% | TIME (Tubulin (Homo sapiens) [17]): 0.728 h | Activity (Jurkat [18]): Active | TGI (MCF7 [19]): Active | Activity [20]: Non-Toxic | Activity (HUVEC [21]): Active | IC50 [22]: 10.5 to 23 nM | Activity [23]: Non-Toxic | MIC [24]: > 16 µg/mL | Activity (Jurkat [25]): Dose-dependent effect | Activity (HUVEC [26]): Active | inhibition [27]: > 50% | Activity (Tubulin (Homo sapiens) [28]): Active | Activity (Rattus norvegicus [29]): Toxic | MIC [30]: > 16 µg/mL | Activity (Tubulin (Homo sapiens) [31]): 2.79 min⁻¹ | Activity [32]: Non-Toxic | EC50 [33]: 8.5 to 34 nM | Activity [34]: 73% | Activity (MCF7 [35]): Active | Activity (Tubulin (Homo sapiens) [36]): 20.5% | TIME (Tubulin (Homo sapiens) [36]): 0.00333 h | inhibition (MCF7 [37]): Dose-dependent effect | Activity (HeLa [38]): Active | Activity (P22): Dose-dependent effect | inhibition (Mus musculus): Active | EC50 [39]: 37.1 nM
